Consider four compounds from ChEMBL document CHEMBL1949552, “Synthesis and interaction with midkine of biotinylated chondroitin sulfate tetrasaccharides” (Bioorg Med Chem Lett, 2012).

In this assay the target is T1, Midkine (Homo sapiens, UniProt P21741).
T1 sequence (P21741 whole entry): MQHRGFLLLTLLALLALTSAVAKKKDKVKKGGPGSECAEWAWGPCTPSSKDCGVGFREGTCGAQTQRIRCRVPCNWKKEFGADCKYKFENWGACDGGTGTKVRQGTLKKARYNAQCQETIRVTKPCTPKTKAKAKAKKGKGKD
Description: Binding affinity to recombinant midkine after 3 mins.
What is called Kd is the concentration at which binding is half-saturated. In the case of `CC(=O)N[C@H]1[C@H](O[C@H]2[C@H](O)[C@@H](O)[C@H](O[C@H]3[C@@H](O)[C@@H](CO)O[C@@H](O[C@H]4[C@H](O)[C@@H](O)[C@H](OCCNC(=O)CCOCCOCCOCCOCCNC(=O)CCCC[C@@H]5SC[C@@H]6NC(=O)N[C@@H]65)O[C@@H]4C(=O)O)[C@@H]3NC(C)=O)O[C@@H]2C(=O)O)O[C@H](CO)[C@H](O)[C@@H]1O`, the Kd was 2030 nM. The result for `CC(=O)N[C@H]1[C@H](O[C@H]2[C@H](O)[C@@H](O)[C@H](O[C@@H]3[C@@H](NC(C)=O)[C@H](O[C@H]4[C@H](O)[C@@H](O)[C@H](OCCNC(=O)CCOCCOCCOCCOCCNC(=O)CCCC[C@@H]5SC[C@@H]6NC(=O)N[C@@H]65)O[C@@H]4C(=O)O)O[C@H](COS(=O)(=O)O)[C@@H]3OS(=O)(=O)O)O[C@@H]2C(=O)O)O[C@H](COS(=O)(=O)O)[C@H](OS(=O)(=O)O)[C@@H]1O` reads 2.62 nM; that for `CC(=O)N[C@H]1[C@H](O[C@H]2[C@H](O)[C@@H](O)[C@H](O[C@@H]3[C@@H](NC(C)=O)[C@H](O[C@H]4[C@H](O)[C@@H](O)[C@H](OCCNC(=O)CCOCCOCCOCCOCCNC(=O)CCCC[C@@H]5SC[C@@H]6NC(=O)N[C@@H]65)O[C@@H]4C(=O)O)O[C@H](CO)[C@@H]3OS(=O)(=O)O)O[C@@H]2C(=O)O)O[C@H](CO)[C@H](OS(=O)(=O)O)[C@@H]1O`, 17.8 nM; that for `CC(=O)N[C@H]1[C@H](O[C@H]2[C@H](O)[C@@H](O)[C@H](O[C@@H]3[C@@H](NC(C)=O)[C@H](O[C@H]4[C@H](O)[C@@H](O)[C@H](OCCNC(=O)CCOCCOCCOCCOCCNC(=O)CCCC[C@@H]5SC[C@@H]6NC(=O)N[C@@H]65)O[C@@H]4C(=O)O)O[C@H](CO)[C@@H]3OS(=O)(=O)O)O[C@@H]2C(=O)O)O[C@H](COS(=O)(=O)O)[C@H](OS(=O)(=O)O)[C@@H]1O`, 11.6 nM.
